Assay results published in patent US20070141181A1, “Use of anabolic agents, anti-catabolic agents, antioxidant agents, and analgesics for protection, treatment and repair of connective tissues in humans and animals” (NUTRAMAX LABORATORIES, INC., priority 1998, published 2007).
Where “and” joins values, the source holds several entries; their conditions need not be identical. Equal entries are not always repeated.

Test system: adult bovine cartilage cells
Assay: GAG synthesis (35-sulfate incorporation) in cultured cartilage cells
Type: cell-based
Conditions: 4 hours incubation, individual agent
Experimental: Articular cartilage was resected from human or animal joints aseptically and placed into a large petri dish in a small amount of DMEM/F-12 or F-12. The tissue was diced to 1-2 mm dimensions and transferred to a small culture flask containing 20 mL DMEM or F-12+400 u/mL collagenase. The flask was placed on the shaker and incubated overnight.
The cell digest was repeatedly aspirated to increase release of cells. The cell digest was then placed into a 50 mL sterile centrifuge tube and centrifuged in the Beckman at 1000 RPM for 10 minutes. The medium was discarded by pipette and fresh DMEM/F-12 containing 1% FCS added. Depending on the size of the pellet, about […] medium was added. Cell counts were determined by haemocytometer and the digest made up to a concentration of 100,000 cells/0.2 mL.
To conduct GAG synthesis, 0.2 mL was aliquoted into each well of a 96 well plate using an 8 channel pipetter and the cells allowed to attach for 24 hours. The media was removed and 0.3 mL of fresh 1% FCS media added for 2-3 days. On the day of the experiment, the media was removed and the experimental solutions containing 35-sulfate isotope were added. The incubation was continued for 4 hours. Termination: at the end of the incubation period, the labeling media was removed, the cell layer was rinsed repeatedly with cold 0.3 mL DMEM or F-12 (about 5 times.), and the cell layer was frozen for counting.
The cell layer for both the synthesis experiments were heated at 50 degrees after adding 100 ul 1 N NaOH for a period of 2 hours. 200 ul scintillant was added and the plates were placed in the counter. The data was expressed as CPM/100,000 cells.

## Pentosan [10Pentos]
  Indv. Agents: CPM/100,000 cells: 76 CPM/100,000 cells

## C[S+](CC[C@H](N)C(=O)[O-])C[C@H]1O[C@@H](n2cnc3c(N)ncnc32)[C@H](O)[C@@H]1O (some centres unmarked) [1% Sam, S-adenosylmethionine]
  Indv. Agents: CPM/100,000 cells: 123 CPM/100,000 cells
Listed as 3% Sam
  Indv. Agents: CPM/100,000 cells: 42 CPM/100,000 cells

## Collagen
  Indv. Agents: CPM/100,000 cells: 118 CPM/100,000 cells (3×) and 70 CPM/100,000 cells

## N[C@H]1C(O)O[C@H](CO)[C@@H](O)[C@@H]1O (some centres unmarked) [Glu-H, Glucosamine]
  Indv. Agents: CPM/100,000 cells: 117 CPM/100,000 cells

## CCCCC/C=C\C/C=C\C/C=C\C/C=C\CCCC(=O)O [AA, Arachadonic Acid]
  Indv. Agents: CPM/100,000 cells: 70 CPM/100,000 cells

## Chondroitin [CHSO4-L]
  Indv. Agents: CPM/100,000 cells: 64 CPM/100,000 cells
Listed as ChS04-H
  Indv. Agents: CPM/100,000 cells: 50 CPM/100,000 cells
